Laboratory results as given in patent publication US20190079094A1, “SUBCELLULAR LOCALIZATION OF TARGET ANALYTES” (Beckman Coulter, Inc., priority 2016, published 2019).
Entries after “also recorded” stand apart in the source; their conditions may differ.

Tests used:
[1] = tested on: T cells and monocytes in PBMCs; test: Digitonin and TX-100 titration on PBMCs, flow cytometry (CytoCalcein Violet loss, HDAC1 staining); type: cell-based; details: for concentration at which the nucleus is also permeabilized: peaked HDAC1 staining
Description: (§1) FIGS. 2A and 2B. Digitonin and TX-100 Titrations to Determine the Optimal Concentrations for Cytoplasmic vs. Nuclear Membrane Permeabilization. A) The cytoplasmic membrane in whole blood is fully permeabilized around 0.031% Digitonin, while the nucleus is also permeabilized around 0.5% Digitonin or 0.125% TX-100. B) The cytoplasmic membrane in PBMCs is fully permeabilized around 0.0016% Digitonin, while the nucleus is also permeabilized around 0.05% Digitonin or 0.025% TX-100. In this figure, the reduction in Calcein signal is indicative of permeabilization of the plasma membrane, while the peaked HDAC1 staining indicates complete nuclear permeabilization. The ledge that forms with HDAC1 prior to complete lysis is due to lysis of the endoplasmic reticulum, which also contains HDAC1.
(§2) FIG. 2 is a comparison of the efficiency of cytoplasmic vs. nuclear permeabilization of T cells and monocytes by different concentrations of Digitonin or TX-100. FIG. 2A is a titration performed on whole blood, while FIG. 2B is a titration performed on PBMCs. In both cases, the samples were first preloaded for 1 hour with 1 μM CytoCalcein Violet (AAT Bioquest, Inc) in a CO2-regulated 37° C. incubator. After 1 hour, the samples were fixed for 10 min with 4% PFA, and then incubated for 30 min at RT with the different concentrations of detergents diluted in diH2O, at a 1:5 ratio with the sample mixture. The samples were then washed and stained with anti-HDAC1-FITC (Abcam, Plc), washed again, and finally read on a Gallios flow cytometer (BCI). In this figure, cytoplasmic lysis is indicated by the loss of CytoCalcein Violet signal as it is released from the cell once the plasma membrane is permeabilized, while nuclear lysis is indicated by the increased HDAC1 signal as the nuclear membrane is permeabilized. In the case of Digitonin lysis, there is a ledge of HDAC1 staining once the plasma membrane is lysed and prior to full nuclear lysis; this is indicative of lysis of the endoplasmic reticulum, which also contains a repository of HDAC1. In whole blood, there is a working range for Digitonin between roughly 0.015% and 0.125%, where the plasma membrane is lysed, but the nucleus is not. For PBMCs, this range is roughly between 0.001% and 0.0125%.

[2] = tested on: T cells and monocytes in whole blood; test: Optimal lysis parameters for whole blood in MES-buffered solution (HSP60, Lamin A/C); type: cell-based; details: 5% fixative
Description: FIGS. 5A and 5B. Cytoplasmic vs. Nuclear Membrane Permeabilization in a Whole Blood Sample using the Optimal Buffer Compositions. A) The CD45 vs. SS and FS vs. SS profiles of the samples after lysis. B) The degree of mitochondrial vs. nuclear membrane permeabilization in T cells. C) The degree of mitochondrial vs. nuclear membrane permeabilization in Monocytes. All of the detergent concentrations used in this experiment fully permeabilized the plasma membrane, while HSP60 and Lamin A/C indicate the degree of mitochondrial inner membrane and nuclear membrane permeabilization, respectively.
FIG. 5 indicates the optimal lysis parameters for whole blood, including modified buffer conditions in order to improve RBC lysis. […] In order to improve RBC lysis, the solution was ultimately buffered with MES at a pH between 4.5-6.5 (such as a pH of 5.5), which also allowed the salt concentration to be increased to physiological levels. This further improved the scatter profiles of the WBCs, decreased the time required for complete lysis to approximately 15 minutes, and improved the RBC lysis efficiency to the point that the buffers still work well if the fixation time is extended well beyond protocol (>20 min). At the same time, the fixative concentration was increased to 5% due to improved performance. In FIG. 5A, the scatter profiles for the optimal lysis parameters can be seen, where 0.0625% Digitonin is optimal for cytoplasmic membrane permeabilization, and either 0.5% Digitonin or 0.25% TX-100 are optimal for whole-cell membrane permeabilization. […] In both cases, the permeabilization profiles can be seen to be consistent with the defined optimal detergent concentrations.

[3] = tested on: Lymphocytes and Monocytes in whole blood; test: Performance of detergents with whole blood (alternative approaches); type: cell-based; details: for concentration at which surface markers are lost and cells disintegrate: Buffer 2 upper bound
Procedure: An exemplary kit is composed of two separate buffers for whole-blood mononuclear cells (i.e., lymphocytes+monocytes): 1) The first buffer is to permeabilize the cytoplasm, including the ER, the endosomal system, and the outer mitochondrial membrane, while 2) the second buffer is to permeabilize everything permeabilized by the first buffer, plus the nucleus (and, in some embodiments, the inner mitochondrial matrix). Buffer 1 (Cytoplasm) may be composed of: 1-100 mM MES pH 4.5-6.5, 0-274 mM NaCl, 0-5.4 mM KCl, and 0.01-0.15% Digitonin. The optimal detergent concentration for Buffer 1 is between […] Digitonin, where the cytoplasm is lysed but the nucleus is not. Buffer 2 (Whole Cell) may be composed of: 1-100 mM MES pH 4.5-6.5, 0-274 mM NaCl, 0-5.4 mM KCl, and >0.01% Digitonin or >0.0125% Triton X-100. The optimal detergent concentration for Buffer 2 depends on the sample type, with the upper bound limited by the loss of surface markers and the disintegration of cells that occurs around 2% for both.
The methods of the invention rely on different detergents or detergent concentrations in order to gently lyse the cytoplasm plus as many cytoplasmic components as possible in one tube, and the whole cell including the nucleus in the other tube. For this reason, a variety of detergents will work to accomplish this task. Some are as follows, with reference to their performance with whole blood: […]

[4] = tested on: T cells and monocytes in whole blood; test: Digitonin and TX-100 titration on whole blood, flow cytometry (CytoCalcein Violet loss, HDAC1 staining); type: cell-based; details: for concentration at which the nucleus is also permeabilized: peaked HDAC1 staining
Description: as §1, §2

MCF-7 cells = test: Modified protocol with MCF-7 cells preloaded with CytoCalcein Violet; type: cell-based, human; details: for concentration permeabilizing only the plasma (cytoplasmic) membrane: loss of CytoCalcein Violet
Procedure: FIG. 4. Modified Protocol to Assess the Permeabilization of the Plasma Membrane with MCF-7 Cells. The cells were preloaded with CytoCalcein Violet, and cytoplasmic membrane permeabilization is indicated by the loss of this signal. In this experiment, 0.025% Digitonin or TX-100 permeabilized only the cytoplasm, while 0.25% of either fully permeabilized the both cytoplasmic and nuclear membranes.
In this experiment, after the cells had been plated for 24 hours, they were preloaded for 1 hour with 1 μM CytoCalcein Violet and then processed as indicated in FIG. 3. When the samples were ready for cover-slipping, mounting medium without DAPI was used. Images were captured on a Zeiss Axioskop 2 Plus microscope together with a 63× oil-immersion lens. In this figure, MCF-7 cells that were not permeabilized can be seen to be loaded with CytoCalcein Violet, and this staining is lost once the plasma membrane is permeabilized. […] In this experiment, 0.025% of both Digitonin and TX-100 can be seen to permeabilize the plasma membrane, while 0.25% of both can be seen to permeabilize the whole cell. This modified protocol was used for subsequent testing of the performance of the different detergents with whole blood and PBMCs by flow cytometry, including for the results in FIG. 2.

[5] = tested on: CREB, RelA and ERK phosphorylation in monocytes; test: Stimulation of monocytes with LPS or GM-CSF, cytoplasmic vs. nuclear signaling; type: cell-based; details: 1 μg/mL LPS or 100 ng/mL GM-CSF
Procedure: FIG. 8. Differential Signaling in Monocytes Induced by 1 μg/mL LPS vs. 100 ng/mL GM-CSF. A) Both LPS and GM-CSF induced CREB phosphorylation at S133, accumulating maximally in the nucleus by 10 min. B) LPS stimulation induced RelA phosphorylation maximally by 10 min in both the cytoplasm and nucleus, though predominantly in the nucleus. C) Both LPS and GM-CSF stimulated ERK phosphorylation primarily in the cytoplasm, maximally by 5 min for GM-CSF and 10 min for LPS.
The protocol for processing whole blood samples is as follows (see FIG. 1 for a workflow): 1) The sample is first mixed 1:1 with fixative, vortexed, and then incubated for 10 minutes. An extra control tube is included for each buffer, which is stained with all antibodies except for the specific signaling or target antibodies being tested in order to subtract the background signal. The background control may also be labeled with isotype-control antibodies for more precise determination of non-specific binding, especially in cells that have characteristically high non-specific binding, such as neutrophils. For indirect antibody labeling, omitting the primary antibody, but still utilizing the secondary antibody, is a common method for determining the degree of non-specific background signal attributable to the secondary antibody, which is typically higher than the direct conjugates of target antibodies. […] 6) Once stained, the samples are again washed 2× with PBS or wash buffer, resuspended in PBS+0.5% PFA, and read on a flow cytometer.
After data acquisition, the samples are gated, compensated, and analyzed as standard flow cytometry samples. […] For example, if staining for the subcellular distribution of FoxP3, where the Background MFIs for the Cytoplasm and Whole Cell are 1.5 and the raw FoxP3 signal is 3.5 and 31.5 for the Cytoplasm and Whole Cell, respectively, then the Cytoplasmic MFI would be calculated to be 2 (i.e., 3.5 (raw)−1.5 (background)=2) and the Nuclear MFI would be calculated to be 28 (i.e., 31.5 (raw)−1.5 (background)−2 (Cytoplasm)=28). […]

[6] = Precipitation of detergent from solution at reduced pH; type: physicochemical; details: regardless of the concentration
Description: However, the performance of CHAPS decreases at lower pHs, and Sodium Deoxycholate immediately precipitates out of solution at pHs lower than ˜7.0 regardless of the concentration. Therefore, these may be useful for PBMCs or cell lines where a reduced pH is not necessary, but not for whole blood.

| Compound | concentration for complete lysis of the cells [1] | concentration at which the nucleus is also permeabilized [1] | optimal concentration for whole-cell membrane permeabilization [2] | concentration at which surface markers are lost and cells disintegrate [3] | concentration for complete lysis of the cells [4] | concentration at which the nucleus is also permeabilized [4] | concentration permeabilizing the whole cell (cytoplasmic and nuclear membranes) (MCF-7 cells) | concentration permeabilizing only the plasma (cytoplasmic) membrane (MCF-7 cells) | also measured |
| --- | --- | --- | --- | --- | --- | --- | --- | --- | --- |
| C[C@@H]1CC[C@@]2(OC1)O[C@H]1[C@@H](O)[C@H]3[C@@H]4CC[C@H]5C[C@@H](O[C@@H]6O[C@H](CO)[C@H](O[C@@H]7O[C@H](CO)[C@@H](O)[C@H](O[C@@H]8OC[C@@H](O)[C@H](O)[C@H]8O)[C@H]7O[C@@H]7O[C@H](CO)[C@H](O)[C@H](O[C@@H]8O[C@H](CO)[C@@H](O)[C@H](O)[C@H]8O)[C@H]7O)[C@H](O)[C@H]6O)[C@H](O)C[C@]5(C)[C@H]4CC[C@]3(C)[C@H]1[C@@H]2C [Digitonin] | 0.025% | around 0.05% | 0.5% | around 2% | 0.25% | around 0.5% | 0.25% | 0.025% | concentration at which the cytoplasmic membrane is fully permeabilized ([1]; reduction in Calcein signal): around 0.0016%; optimal concentration for cytoplasmic membrane permeabilization [2]: 0.0625%; concentration at which the cytoplasmic membrane is fully permeabilized ([4]; reduction in Calcein signal): around 0.031% |
| GM-CSF: cytokine activator reagent | – | – | – | – | – | – | – | – | time of peak RelA S536 phosphorylation [5]: did not stimulate RelA phosphorylation at S536; time of peak ERK phosphorylation (S202/T204) ([5]; primarily cytoplasm): ≤ 5 min |
| Octylphenoxypoly(ethylene-oxy)ethanol [NP-40] | – | – | – | – | – | – | – | – | performance compared with TX-100 ([3]; whole blood): performs equivalently to TX-100; also recorded: interchangeable with TX-100 for whole-cell permeabilization |
| Sodium Deoxycholate | – | – | – | – | – | – | – | – | pH below which the detergent immediately precipitates out of solution [6]: < 7.0 |
| ethyoxylated octylphenol [TX-100] | 0.025% | ~0.025% | 0.25% | around 2% | 0.125% | ~0.125% | 0.25% | 0.025% | working range where the plasma membrane is lysed but the nucleus is not [4]: does not provide this working range |
